# Counter-ions that a name gives are not always drawn.
# Tests used:
# urease = urease (Canavalia ensiformis, UniProt P07374); settings: cited from earlier work
# [1] = target: T1, Urease (type IX from Jack Beans) (Canavalia ensiformis, UniProt P07374); test: biochemical; format: biochemical; settings: for Km / kcat: Urease/FD; for kcat: pH 5.1; for Ki: 20 mM urea
# T1 construct: purchased Sigma (St. Louis, Mo.) type IX
# Method: Preparation of Spotting Solutions: GOx and HRP were dissolved at concentration of 0.4 mg.mL^−1 (250 units.mg^−1) and 0.01 mg.mL^−1 (1000 units.mg^−1), respectively, in 50 mM sodium phosphate buffer, pH 7.4 to form the protein stock solutions. The Amplex Red reagent was made up to a stock concentration of 10 mM. Urease and fluorescein dextran were dissolved at concentrations of 2 mg.mL^−1 (35,400 units.g^−1) and 25 μM, respectively, in 50 mM Tris buffer containing 50 mM NaCl, pH 8 to form their respective stock solutions. GOx/HRP assay samples were prepared to a total volume of 50 μL by mixing 3 μL of each of the GOx and HRP stock solutions, 39 μL of sodium phosphate buffer and 5 μL of the Amplex Red dye solution. Negative and blank control samples were prepared in the same way except that phosphate buffer replaced the missing reagent. Positive control samples contained GOx and HRP as well as 15 μL of 100 μM D-glucose (in buffer) and only 24 μL of buffer. […] Similarly, the blank and positive control samples replaced the missing reagents with Tris buffer while the enzyme selectivity control was obtained by replacing urease with AChE (0.01 mg.mL^−1) in Tris buffer.
# Enzyme Assays All enzyme assays and inhibition studies were performed in 96 well plates using a TECAN Safire absorbance/fluorescence platereader operated in fluorescence mode, or on the microarray using time-dependent fluorescence intensity measurements. The enzymatic activity of free and entrapped GOx in 96 well plates was measured by adding 50 μL of a solution containing varying concentrations of glucose to the microtiter well and monitoring of the fluorescence emission at 590 nm for 20 minutes (in solution) or 45 minutes (for entrapped GOx) with excitation at 573 nm. For microarrays, 20 μL of a glucose solution was added to the top of the array, left for 20 seconds and then removed by gently blowing air over the surface, followed by monitoring of fluorescence emission over time. […] Images were acquired before the addition of glucose and then every 30 seconds for 30 minutes after the introduction of glucose using a 30 second integration time per image. For urease, activity and inhibition were measured by adding 100 μL of a solution containing a constant amount of urea (20 mM) in the presence of varying amounts of thiourea (0-100 mM) to the microtiter well and the fluorescence emission of the fluorescein dextran was monitored at 520 nm for 15 minutes (solution) or 45 minutes (entrapped). Microarrays containing urease and fluorescein dextran were first imaged after washing with distilled deionized water (ddH2O, pH 5.1) to provide a constant baseline intensity response. Following this, 20 μL of a urea/thiourea solution was added to the top of the array, which was then covered with a coverslip to minimize solvent evaporation. The emission intensity of fluorescein dextran was measured every 20 seconds for 10 minutes using a 10 second integration time per image following the addition of the urea solution to the array. All samples were tested within 24 hours of being prepared.
# For both enzymes studied the initial rate of change in fluorescence intensity was converted to a change in product concentration with time using calibration curves relating the emission intensity of fluorescein to the concentration of ammonium carbonate (for urease) or hydrogen peroxide (for GOx). The Michaelis constants (KM) and catalytic rate constants (kcat) for the enzymes were calculated by generating either double reciprocal (Lineweaver-Burk) plots relating (initial rate of product formation)^−1 to (substrate concentration)^−1 or Hanes-Wolff plots, and fitting these to a linear model. Inhibition constants (KI) for urease were calculated by assessing the changes in the initial rate values for the enzyme in the presence of varying levels of inhibitor, according to the equation: […]
# [2] = target: rhodamine-labelled calmodulin (CaM)/rhodamine-labelled melittin complex (Homo sapiens, UniProt P0DP23); test: Calmodulin-melittin sol-gel microarray, rhodamine self-quenching fluorescence; format: binding; settings: for effect on CaM-melittin complex / fluorescence intensity: addition to array, 20:1 molar ratio to CaM for guanidine hydrochloride
# Text: A third system involving protein-peptide interactions consisted of rhodamine-labelled calmodulin (CaM) and rhodamine-labelled mellitin, and was based on a slightly different fluorescence-based screening method utilizing these same biomolecules entrapped in sol-gel derived monoliths. In the absence of antagonists or denaturants (such as guanidine hydrochloride), these two species exist in a complex that brings the two rhodamine labels into close proximity, resulting in self-quenching and thus a low fluorescence signal.
# Another example of a sol-gel derived microarray involving a protein-peptide interaction has been developed consisting of rhodamine-labelled calmodulin (CaM) and rhodamine-labelled melittin co-entrapped in a sodium silicate derived sol-gel. In the absence of antagonists, these two species exist in a complex that brings the two rhodamine labels into close proximity, resulting in a self-quenching dimer and thus a low fluorescence signal.
# Columns 1 & 5 contain the protein-protein interaction between CaM and Mellitin. Both of which are labelled with rhodamine. Columns 2 & 4 are blank and contain only buffer. Column 3 contains CaM—Rhodamine alone and acts as a positive control. Upon addition of GdHCl (2M) to the top of the array and imaging every 20 s, the CaM-Mel columns increased in fluorescence over 2-fold (Panel B), while the positive control increased slightly initially but reached a relatively low steady-state value quickly (see graph, FIG. 7)
# [3] = entrapped enzyme in platereader
# T1 sequence (P07374 whole entry, looked up): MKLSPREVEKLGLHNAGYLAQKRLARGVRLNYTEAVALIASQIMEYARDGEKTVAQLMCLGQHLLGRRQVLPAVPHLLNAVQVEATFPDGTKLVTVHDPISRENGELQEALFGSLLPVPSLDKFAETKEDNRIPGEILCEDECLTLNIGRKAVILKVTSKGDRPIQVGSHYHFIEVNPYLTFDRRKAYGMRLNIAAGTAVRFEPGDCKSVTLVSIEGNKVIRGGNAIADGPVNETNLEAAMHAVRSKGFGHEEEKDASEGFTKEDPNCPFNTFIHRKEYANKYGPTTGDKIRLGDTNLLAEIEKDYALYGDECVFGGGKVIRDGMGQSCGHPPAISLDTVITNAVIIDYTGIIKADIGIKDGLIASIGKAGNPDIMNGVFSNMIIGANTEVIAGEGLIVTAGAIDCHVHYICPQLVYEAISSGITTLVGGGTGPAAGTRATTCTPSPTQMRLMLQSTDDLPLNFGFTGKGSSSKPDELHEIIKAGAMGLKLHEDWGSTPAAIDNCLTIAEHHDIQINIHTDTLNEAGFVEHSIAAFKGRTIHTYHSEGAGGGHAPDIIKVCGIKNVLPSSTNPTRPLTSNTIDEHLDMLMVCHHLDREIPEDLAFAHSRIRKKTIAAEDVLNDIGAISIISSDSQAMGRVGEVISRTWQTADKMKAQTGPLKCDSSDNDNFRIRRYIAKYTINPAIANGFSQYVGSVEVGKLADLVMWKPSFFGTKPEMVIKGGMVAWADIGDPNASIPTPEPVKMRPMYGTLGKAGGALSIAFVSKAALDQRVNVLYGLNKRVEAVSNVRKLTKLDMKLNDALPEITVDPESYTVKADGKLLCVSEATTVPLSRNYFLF
# urease, sequence (P07374 whole entry, looked up): as above
smiles,measurement,setting,value
NC(N)=O [urea],Km,"urease; urease, literature",2900 µM
same,Km,[1]; [3],2350 ± 30 µM
same,kcat,[1]; [3],1.33 ± 0.02 s⁻¹
same,Km,[1]; sol-gel microarray,1900 ± 100 µM
same,kcat,[1]; sol-gel microarray,1.1 ± 0.1 s⁻¹
same,Km,"[1]; solution, platereader",1300 ± 200 µM
same,kcat,"[1]; solution, platereader",78 ± 2 s⁻¹
same,kcat of entrapped protein lower than in solution,"[1]; urease, entrapped vs solution",up to 70 fold
N=C(N)c1ccccc1 [benzamidine],effect on CaM-melittin complex / fluorescence intensity,[2],no changes in intensity above that obtained for CaM alone
NC(N)=S [thiourea],Ki,"urease; urease in solution, literature range, different pH values (5.5 to 8)",48 to 85 mM
same,Ki,"[1]; urease entrapped in bulk sodium silicate glass, platereader",54 ± 2 mM
same,Ki,[1]; urease sol-gel microarray,62 ± 7 mM
N=C(N)N [guanidine hydrochloride],increase in fluorescence of CaM-Mel columns,"[2]; GdHCl 2M added to top of array, imaging every 20 s",over 2 fold
same,effect on CaM-melittin complex / fluorescence intensity,[2],the complex was dissociated

# Reference: patent publication US20090088329A1, “MULTICOMPONENT PROTEIN MICROARRAYS” (priority 2002, published 2009)
